These results are taken from article PMC4926252 (Scientific Reports, 2016).

Where two headings read alike, the source gives them in different places.

For series [1], the target named is T1, CtpH-LBD (Pseudomonas aeruginosa, UniProt G3XDA3). In words: biochemical. It counts as binding. Conditions: for binding: titrated with 5 mM ligand.
Series [2] deals with P. aeruginosa PAO1. The conditions noted are these: cited from earlier work.
Series [3] deals with PstS (Pseudomonas aeruginosa, UniProt G3XDA8). In words: biochemical. It counts as binding. The conditions noted are these: for ΔH: 25 °C, unfolded/refolded PstS, 10 mM Tris/HCl pH 8.0.
The target in series [4] is T1, CtpH-LBD. The conditions noted are these: sedimentation velocity and equilibrium, with and without Pi.
Series [5] addresses CtpL-LBD (Pseudomonas aeruginosa, UniProt Q9HUW6). Conditions: ITC. The procedure: E. coli BL21 (DE3) containing the expression plasmids were cultured in LB medium supplemented with 50 μg ml^−1 kanamycin at 30 °C until an OD660 of 0.6, at which point 0.1 mM IPTG was added. […] Pellets were resuspended in buffer A (30 mM Tris, 300 mM NaCl, 10 mM imidazole, 5% (v/v) glycerol, pH 7.0) and broken by French press at 1000 psi. […] Protein was diluted to 10 μM and refolded by two consecutive dialyses into 10 mM Tris/HCl, pH 8.0. Aggregated protein corresponding to misfolded species was removed by filtration using 0.22 μm cut-off filters.
The mean enthalpies from the injection of ligands into buffer were subtracted from titration data prior to analysis with the “One binding site model” of ORIGIN following the algorithm described in[51].

The target of series [6] is T1, CtpH-LBD. The conditions noted are these: CtpH-LBD (51 μM) saturated with 5 mM Pi.
Series [7] deals with P. aeruginosa PAO1.
The target of series [8] is G3XDA3. The series is described as follows: AUC; sedimentation velocity of CtpH-LBD in the presence of 500 uM Pi; 45,000 rpm, 6 °C, polybuffer.
Series [9] has as its target G3XDA3. In words: AUC; sedimentation equilibrium of CtpH-LBD in the presence of Pi; 11,800, 18,100 and 31,000 rpm, 6 °C, polybuffer.
For series [10], the target named is T2, PstS (PA5369), periplasmic phosphate-binding protein, recombinant (P. aeruginosa, UniProt G3XDA8 25-323).
T2 construct: also called Pi-loaded PstS; source: E. coli BL21 (DE3), overexpressed, purified (HisTrap)
T2 sequence: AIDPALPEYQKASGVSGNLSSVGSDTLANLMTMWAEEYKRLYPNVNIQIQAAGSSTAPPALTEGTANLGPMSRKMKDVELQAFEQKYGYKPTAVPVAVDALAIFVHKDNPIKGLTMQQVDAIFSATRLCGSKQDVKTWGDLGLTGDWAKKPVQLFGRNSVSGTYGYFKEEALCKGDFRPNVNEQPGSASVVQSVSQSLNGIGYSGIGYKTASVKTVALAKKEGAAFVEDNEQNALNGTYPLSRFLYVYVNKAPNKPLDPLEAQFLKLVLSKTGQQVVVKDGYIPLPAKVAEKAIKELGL
The series is described as follows: ITC; 5 uM Pi-loaded PstS in the cell titrated with 80 uM CtpL-LBD; 25 °C; one binding site model; means of three experiments. The conditions noted are these: both partners purified.

Series [11] concerns the target T2, PstS (PA5369), periplasmic …. The series is described as follows: AUC; sedimentation velocity, 45,000 rpm, 6 °C, polybuffer; CtpL-LBD and PstS individually and as a mixture; c(s) method. The conditions noted are these: both partners purified.

Turning to `O=C(O)[C@H](O)[C@@H](O)[C@H](O)[C@H](O)COP(=O)(O)O` [6-phosphogluconate], the KD result in series [1] (pH 7) is recorded as “No binding”.

`O=P(O)(O)OP(=O)(O)O` [pyrophosphate]: the chemotaxis entry in series [2] (P. aeruginosa) is “chemotaxis towards millimolar concentrations of pyrophosphate”. This molecule also showed an equilibrium dissociation constant (Kd) in [3] of 2.6 ± 0.3 µM. Further, the ΔH in series [3] (ITC) is -8.3 ± 0.3 kcal/mol.

`O=CC(O)COP(=O)(O)O` (racemic) [DL-glyceraldehyde 3-phosphate]: in series [1] (pH 7), the KD entry is “No binding”.

As for `O=[As][O-].[Na+]` [arsenite], the KD entry in series [1] (ITC, 25 °C, polybuffer pH 7.0) is listed as “No binding”. The binding result in [1] (ITC) is “did not bind”.

Take `O=[As](O)(O)O` [arsenate]: the chemotaxis result in series [2] (Pi starved cells) is “attracted to arsenate”. In [1] (ITC, 25 °C, polybuffer pH 7.0), the KD entry is “No binding”. In addition, in series [1] (ITC), the binding entry is “did not bind”.

`C=C(OP(=O)(O)O)C(=O)O` [phosphoenolpyruvate]: the KD result in [1] (pH 7) is “No binding”.

`O=C(CO)[C@@H](O)[C@H](O)[C@H](O)COP(=O)(O)O` [D-fructose 6-phosphate]: in [1] (pH 7), the KD entry is given as “No binding”.

Regarding `Nc1ncnc2c1ncn2[C@@H]1O[C@H](COP(=O)(O)O)[C@@H](O)[C@H]1O` [AMP], the KD entry in series [1] (pH 7) is “No binding”.

Take `O=C[C@H](O)[C@@H](O)[C@H](O)[C@H](O)COP(=O)(O)O` [D-glucose 6-phosphate]: the KD entry in [1] (pH 7) was “No binding”.

Regarding `Nc1ncnc2c1ncn2[C@@H]1O[C@H](COP(=O)(O)OP(=O)(O)OP(=O)(O)O)[C@@H](O)[C@H]1O` [ATP], the Kd in [3] turned out to be 0.3 ± 0.1 µM. This molecule also came in with a ΔH in series [3] (ITC) of -2.9 ± 0.1 kcal/mol. The KD entry in [1] (pH 7) is recorded as “Binding ^1”.

In [1], `Nc1ncnc2c1ncn2[C@@H]1O[C@H](COP(=O)(O)OP(=O)(O)O)[C@@H](O)[C@H]1O` [ADP] showed a Kd of 103 ± 21 µM. In series [1] (pH 7), this molecule gave a ΔH of -2.7 ± 1 kcal/mol.

In the case of `O=P(O)(O)O` [Pi, K2HPO4], the “effect on oligomeric state of CtpH-LBD” value in [4] was “causes CtpH-LBD dimerization”. In addition, the binding entry in series [5] (CtpL-LBD denatured, dialyzed and refolded) was “did not show any Pi binding”; in [3] (ITC, PstS as purified from E. coli, before unfolding/refolding), “no binding”. Also, the KD result in series [5] (conducted at different temperatures) is “No binding”. In addition, the ΔH of unfolding in [6] (without Pi 28.2 kcal/mol) is 39.9 + /−1.5 kcal/mol. In series [6] (without Pi 46.9 °C), the Tm was 56.6 + /−0.2 °C. Also, the chemotaxis result is listed as “no significant changes” in [7] (ctpH mutant, 0.01 mM Pi); “compromised chemotaxis” in [7] (ctpH mutant, 0.1 and 10 mM Pi); “dramatically reduced chemotaxis” in [7] (pstS deletion mutant, low Pi (0.01 and 0.1 mM)); “did not greatly affect chemotaxis” in series [7] (pstS mutant, high Pi (10 mM)); “only very marginal Pi chemotaxis” in series [7] (pstS/ctpH double mutant). The same molecule yielded a Kd in series [3] of 0.007 ± 0.001 µM. In [3] (ITC), this molecule registered a ΔH of -5.1 ± 0.1 kcal/mol. Moreover, the TΔS in series [3] (ITC, refolded PstS) came to 6.0 ± 0.1 kcal/mol. In series [3] (ITC, refolded PstS), this molecule displayed a n-value of 0.29 ± 0.02.

B1: ligand binding domain of the chemoreceptor CtpH (CtpH-LBD) (protein)
chain: GSLTGDVRAYRELLGGPVRAAQLIDEANLQFRGQVQEWKNVLLRGRQTEAQTKYWSQFEAQERAVQDILGRLGSVAEGELKDRVERLREEHRRLGTAYRQGRQRFLEAGADPIAGDQAVTGIDRATTAQMQTLRDELHQASDLHSSSISAEARRT
Regarding B1, in series [8], the “N with Pi” value is “dimer (39,566 Da)”; the “N with Pi (minor species)” value is listed as “tetramer (79,132 Da)”; the “percent of the sedimenting material in the dimer peak, with Pi” value is given as 86% of the sedimentation material. The N with Pi in [9] came out at 2.

B2: ligand binding domain of the chemoreceptor CtpL (CtpL-LBD) (domain or fragment, P. aeruginosa, UniProt Q9HUW6 27-324, looked up)
chain: WSQRAMERPFQLLDQYLELSQRFDEQVARNIRQYLGSGDAVRQQAALQALESLAEALPELPPDLARTLAPSLAELREFSAGDLLAAGKLAGDPQGLLLQAERDLTGNLEQWSAYLDAAAGQPQAGAYRTPLLLASLHLTRLSLARAKLVESANPALAGDVERELANLREQAGRIEALPLLGVLDEQRSASDDFAAMMGLAGDAEAGAGNAEDRGVALRRELASLLQRYPDELRRTRDLIERRQQLSADTGARLDAVRQALATLEPQVRGERQRLQGQVRLIQGGMIALILLIALAIDS
notes: Cloned into pET28b(+); Held on a HisTrap column as bait in the pull-down; The discussion gives 286 amino acids for CtpL-LBD, whereas 27-324 is 298 residues; also called PA4844; source: E. coli BL21 (DE3), purified (HisTrap) from the soluble fraction
In the case of B2, the dH in [10] is -3.1 kcal/mol. For the same molecule, the “stoichiometry N” value in series [11] was found to be 1.
